PMC11587516 (ACS Chemical Neuroscience, 2024)

Tests used:
hBGT1 E52A+Q299L = target: T1, hBGT1 E52A+Q299L (Homo sapiens, UniProt P48065, E52A/Q299L); assay: [3H]GABA uptake assay, hBGT1 double mutant E52A+Q299L in tsA201 cells; format: cell-based
T1 construct: host or cells: tsA201 cells (transformed HEK293), transient expression
T1 sequence (P48065 1-614 E52A/Q299L): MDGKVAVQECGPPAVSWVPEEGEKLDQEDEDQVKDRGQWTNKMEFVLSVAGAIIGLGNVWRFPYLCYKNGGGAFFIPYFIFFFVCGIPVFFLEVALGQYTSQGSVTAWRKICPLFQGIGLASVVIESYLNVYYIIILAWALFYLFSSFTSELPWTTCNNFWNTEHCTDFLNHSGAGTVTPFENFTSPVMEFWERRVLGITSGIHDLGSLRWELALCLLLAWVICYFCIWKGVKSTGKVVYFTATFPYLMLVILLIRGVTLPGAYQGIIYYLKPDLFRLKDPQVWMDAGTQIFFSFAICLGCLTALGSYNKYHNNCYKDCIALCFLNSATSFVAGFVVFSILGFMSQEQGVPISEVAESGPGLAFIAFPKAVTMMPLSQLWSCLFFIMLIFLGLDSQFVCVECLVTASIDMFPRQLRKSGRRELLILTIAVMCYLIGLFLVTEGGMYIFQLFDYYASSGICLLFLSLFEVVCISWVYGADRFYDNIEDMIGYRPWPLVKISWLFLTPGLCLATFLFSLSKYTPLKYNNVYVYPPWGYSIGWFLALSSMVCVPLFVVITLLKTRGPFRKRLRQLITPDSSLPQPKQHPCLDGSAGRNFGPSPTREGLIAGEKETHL
Experimental: To validate the molecular modeling, particularly the crucial interactions with the Glu52 and Gln299 residues, the activity of compound 9 was tested on the following hBGT1 mutants: E52A, E52Y, Q299L, and the double mutant E52A+Q299L (Figure 5 and Table 1).[14]
The CHO cells were placed in 96-well plates (approximately 50,000 cells/well) for about 24 h before the experiment. […] After incubation, cells were washed 3 times with 100 μL/well ice-cold assay buffer, 150 μL/well MicroScint20 (PerkinElmer) was subsequently added before the plate was shaken for at least 1 h. The radioactivity of each well of the plate was measured on a TopCount NXT scintillation counter. […] Data presented are the pooled data of at least three independent experiments with three technical replicates if not stated otherwise in figure legends. Concentration–response curves were fitted by nonlinear regression to the sigmoidal concentration–response model with GraphPad Prism v 9.0.
The tsA201 cell line (a transformed HEK293 cell line) has been described previously and was cultured accordingly.[20] The tsA201 cells used for transient expression of hBGT1 mutants were transfected with DNA constructs (8 μg per 10 cm plate) using 40 μL of PolyFect transfection reagent according to the manufacturer’s protocol (Qiagen). […]

[1] = system: SH-SY5Y neuroblastoma cells; assay: SH-SY5Y viability, MTS assay, 72 h; format: cell-based, human; details: 0.1-100 µM
Text: OC(=O)[C@H]1CNCC[C@@H]1S OC(=O)CCCCCCN1C=CN=C1
OC(=O)C1CCNCC1 N[C@]12C[C@H]1[C@@H](CC2)C(O)=O
OC(=O)C1=CCNCC1 N[C@H]1C[C@@H]1CC(O)=O
O[C@@H]1CNCC[C@H]1C(O)=O N[C@@H]1C[C@@H]1CC(O)=O
OC(=O)CCCC1=NC=CN1 N[C@H]1C[C@H]1CC(O)=O
OC(=O)\C=C\C1=NC=CN1 NC[C@H]1C[C@H]1C(O)=O
OC(=O)\C=C\C1=CNC=N1 NC[C@@H]1C[C@@H]1C(O)=O
OC(=O)\C=C\C1=CN=CN1 NC[C@@H]1C[C@H]1C(O)=O
OC(=O)CCC1=CNC=N1 NC[C@H]1C[C@@H]1C(O)=O
OC(=O)CCC1=CN=CN1 NC1=CC=C(C=N1)C(O)=O
OC(=O)CCN1C=CN=C1 NC1=NC=C(C=N1)C(O)=O
OC(=O)CCCC1=NC=CN1 NC(=N)N1CCC(CC1)C(O)=O
S2. IC50 determination at GAT3 stable GAT3-CHO, compound 9
Figure S1. IC 50 determination for compound 9. Data represent one of three independent experiments, each performed in three technical replicates.
S3. […]
The influence of compound 9 on viability of SH-SY5Y neuroblastoma cells was determined using Aqueous Non-Radioactive Cell Proliferation Assay. […] Upon adding MTS and following 2h incubation, cell viability was calculated and […]
The effect of compound 9 on viability and proliferation of SH-SY5Y was determined with CellTiter 96® Aqueous Non-Radioactive Cell Proliferation Assay (MTS, Promega, Madison, WI, USA). […] Next MTS was added in fresh medium and after 2h of incubation the absorbance was measured at 490 nm using a microplate reader EnSpire (PerkinElmer, Waltham, MA USA). All results were shown as mean ± SD calculated from two independent experiments. […]

NC12CC(C(=O)O)(C1)C2 [Compound 9] was tested, and the IC50 (hBGT1 E52A+Q299L) was > 1 mM, the “activity at mutant compared with wild type hBGT1” value (hBGT1 E52A+Q299L; E52A+Q299L vs wt) was “no activity” and the “impact on SH-SY5Y viability” value [1] was “no impact”.
